Among the data in patent publication US10233151B2, “Use of a novel 3-aryl-4-catechol-pyrrole-N-propanol compound and the derivatives thereof to treat cancer and diseases related to excessive angiogenesis” (Centre National de la Recherche Scientifique (CNRS), priority 2014, dated 2019) are IC50 values, retold here.

A short description of the assay: EPR competition with BMPO, superoxide anion from KO2 in DMSO (organic phase). The settings on record: KO2 5 mM in DMSO, BMPO 25 mM, room temperature; read-out: IC50, inhibition of the formation of the BMPO superoxide adduct. Here is the method:
The reactivity of compound (1) with superoxide anion in the organic phase was studied by EPR at room temperature using a competition method with the superoxide trapping reagent BMPO (5-tent-butoxycarbonyl-5-methyl-1-pyrroline N-oxide) (FIG. 1A). The superoxide anion source is potassium salt (KO2) used at 5 mM in DMSO after ultrasound-assisted dissolution. The concentrations used for compound (1) are between 0.31 and 40 μM. The trapping reagent BMPO is used at a final concentration of 25 mM. These experiments were carried out with a MiniScope MS 100 EPR spectrometer (Magnettech GmbH, Germany), operating at a frequency of 9.5 GHz (X-band) with the following parameters: magnetic field: 336.0±9.9 mT; sweep time: 20 s; sampling: 4096 points; modulation amplitude: 0.10 mT; modulation frequency: 100 kHz; gain: 900; microwave power: 100 mW.

The term IC50 denotes the point on the concentration scale where inhibition reaches its midpoint. On to `OCCCn1cc(-c2ccccc2)c(-c2ccc(O)c(O)c2)c1` [compound (1)], for which the IC50 was 2500 nM.
